In patent publication EP0628539B1, “Polyepoxysuccinic acid derivatives and their use for the control of scale formation and corrosion in aqueous systems” (BetzDearborn Europe, Inc., priority 1993, dated 1994):

Legend:
[1] = Static calcium carbonate % inhibition evaluation (EDTA titration of filtrate calcium); conditions: 1106 ppm Ca as CaCO3, 1160 ppm CO3 as CaCO3, pH = 9.0, Temp. = 70°C, Duration = 17 hours
Method: Table II summarizes the static calcium carbonate inhibition testing of the compounds of the present invention compared to several prior art calcium carbonate control agents. The tests were performed by adding the treatment solution (sample) to a carbonate stock solution of the described conditions.
A calcium stock solution was then added and the mixture was incubated for 17 hours at 70°C. All treatments were adjusted to pH 9.0 prior to use and the treatment weights, expressed as the sodium salts, accounted for the presence of disodium tartrate by-product. After cooling, a measured portion of the mixture was filtered and the filtrate pH adjusted to less than 1 with hydrochloric acid. The filtrate was then diluted and pH adjusted to 12 with sodium hydroxide. A calcium indicator, murexide, was then added and the solution titrated with a known concentration of ethylenediaminetetraacetic acid (EDTA). From titrations for the treated, stock and control solutions, the percent inhibition was calculated as follows: % Inhibition =(mls EDTA(treated) - mls EDTA(control))/(mls EDTA(stock) - mls EDTA(control))x 100 [formula]

[2] = Beaker Corrosion Test Apparatus (BCTA): coupon and probe weight loss, electrochemical corrosion rate; conditions: 25 ppm, base treatment 1 ppm HEDP, 10 ppm acrylic copolymer, 15 ppm molybdate (PESA: no HEDP), pH 8.4, 120°F, 40 hours
Method: The corrosion inhibition activity of the present invention was evaluated with a Beaker Corrosion Test Apparatus (BCTA). […] The test solution volume is 1.9 liters.
Electrochemical corrosion rate data (EC) are obtained during the test from potentiodynamic polarization resistance measurements. Additional corrosion data is obtained from the coupon and the electrochemical probe by standard weight loss measurement techniques. All tests were conducted under the following conditions unless otherwise noted:
Under these conditions, the test water is supersaturated with respect to calcium carbonate. […] Therefore, all tests were conducted with a base treatment to inhibit the precipitation of calcium carbonate under the test conditions. The blank runs reported for all tests include the addition of the base treatment.
In all tests, the blank corrosion rates are expressed in mils per year (mpy). The corrosion rates for the inhibitor compounds are expressed as a reduction in the corrosion rate relative to the blank calculated according to the following equation: % Corrosion Inhibition =((mpy Blank - mpy Treated))/(mpy Blank)x 100 [formula]
All tests were conducted as parts per million of the inhibitor molecule as the sodium salt. Compound αHCA(12) was evaluated as ppm of the free acid.
A sample of poly[epoxysuccinic acid]

CC(O)(P(=O)(O)O)P(=O)(O)O [HEDP, 1-hydroxyethylidene-1,1-diphosphonic acid]
Static Calcium Carbonate % Inhibition ([1]; 5 ppm Actives): 73.1% | Static Calcium Carbonate % Inhibition ([1]; 10 ppm Actives): 71.3%

O=C([O-])C(O)[C@H](NCCS(=O)(=O)[O-])C(=O)[O-].[Na+].[Na+].[Na+] (stereo partly drawn) [αHCA(9), aspartic acid, 3-hydroxy, N-[2-ethanesulfonic acid]-trisodium salt]
Static Calcium Carbonate % Inhibition ([1]; 5 ppm Actives): 5.1% | Static Calcium Carbonate % Inhibition ([1]; 10 ppm Actives): 3.7% | Percent Corrosion Inhibition, Coupon ([2]; coupon weight loss relative to blank (62.4 mpy)): 29.3% | Percent Corrosion Inhibition, EC (avg) ([2]; electrochemical corrosion rate relative to blank (47.1 mpy)): 69.4% | Percent Corrosion Inhibition, Probe ([2]; probe weight loss relative to blank (58.9 mpy)): 66.2%

O=C(O)CCC(CC(=O)O)(C(=O)O)P(=O)(O)O (stereo not drawn) [PBSAM, 2-phosphonobutane - 1,2,4-tricarboxylic acid]
Static Calcium Carbonate % Inhibition ([1]; 5 ppm Actives): 67.5% | Static Calcium Carbonate % Inhibition ([1]; 10 ppm Actives): 76.0%
